Results taken from patent US20230033195A1, “METHODS AND COMPOSITIONS FOR IMPROVING COGNITIVE FUNCTION” (THE JOHNS HOPKINS UNIVERSITY, priority 2011, published 2023).
Like-named read-outs stand apart in the source and are kept apart here.

Tests used:
aMCI subjects = experiment: neuropsychological tests outside the scanner; assay type: in vivo, human; conditions: 125 mg twice a day for two weeks, vs placebo
Description: A within-subjects trial of 8 weeks duration, involving 17 amnestic MCI (aMCI) subjects and 17 age-matched controls with a low dose treatment of levetiracetam is conducted. During the course of the study, each aMCI subject receives both drug and placebo treatments separately in two periods of two weeks each, with the order of treatments among different aMCI subjects counterbalanced (see FIG. 7). Age-matched control subjects treated with placebo serve as a further control. Cognitive testing and fMRI imaging data are obtained from the subjects after each two week period of drug/placebo treatment. All participants undergo neuropsychological evaluation at the time of assessment for treatment efficacy (Visits 1 and 2), as well as at the Baseline Visit. The evaluation occurs outside of the scanner and includes the Buschke Selective Reminding Test (Buschke and Fuld, 1974) and the Verbal Paired Associates subtest, the Logical Memory subtest, the Visual Reproduction subtest of the Wechsler Memory Scale-Revised (WMS-R) (Wechsler, 1997), and the Benton Visual Retention Test, as these tasks are particularly sensitive to medial temporal lobe function and early memory problems (Marquis et al., 2002 and Masur et al., 1994). Additionally, subjects are asked to complete tests of more general cognitive function such as tests to assess general mental status, executive function, attention and general naming ability. All neuropsychological tests are administered by a trained research assistant during a 60-minute session. As the three neuropsychological assessments in this study occur within a time period of 8 weeks, different versions of the neuropsychological tests are used to minimize test specific practice effects. Breaks are provided to the subject as needed.

[1] = cited from earlier work
DG/CA3 of aMCI subjects = experiment: fMRI activity during lure stimuli correctly identified as similar, DG/CA3; assay type: in vivo, human; conditions: 125 mg twice a day for two weeks
Description: FIG. 8B depicts the average activity in the left CA3 of aMCI subjects with placebo treatment or levetiracetam treatment (125 mg twice a day for two weeks) during the presentation of lure stimuli that the subject correctly identified as "similar."
(§1) A within-subjects trial of 8 weeks duration, involving 17 amnestic MCI (aMCI) subjects and 17 age-matched controls with a low dose treatment of levetiracetam is conducted. During the course of the study, each aMCI subject receives both drug and placebo treatments separately in two periods of two weeks each, with the order of treatments among different aMCI subjects counterbalanced (see FIG. 7). Age-matched control subjects treated with placebo serve as a further control. Cognitive testing and fMRI imaging data are obtained from the subjects after each two week period of drug/placebo treatment.
(§2) Imaging data are obtained through high-resolution methods developed in the Stark laboratory. Data are collected on a Phillips 3 Tesla scanner (Eindhoven, The Netherlands) equipped with an 8-channel SENSE (Sensitivity Encoding) head coil, located at the F.M. Kirby Research Center for Functional Brain Imaging at the Kennedy Krieger Institute (Baltimore, MD). […]
(§3) Group data are analyzed using a two-way Analysis of Variance (ANOVA) with trial types and group as fixed factors, and subject as a random factor nested within group. […]

[2] = tested on: entorhinal cortex (EC) of aMCI subjects; experiment: fMRI activity during lure stimuli correctly identified as similar, entorhinal cortex; assay type: in vivo, human; conditions: 125 mg twice a day for two weeks
Description: FIG. 9B depicts the average activity in the left entorhinal cortex of the same aMCI subjects with placebo treatment or levetiracetam treatment (125 mg twice a day for two weeks) during the presentation of lure stimuli that the subject correctly identified as "similar."
as §1, §2, §3

CC[C@@H](C(N)=O)N1CCCC1=O [levetiracetam, (2S)-2-(2-oxopyrrolidin-1-yl) butanamide]
Benton Visual Rentention Test performance (aMCI subjects): fail to rescue performance | Buschke Selective Reminding Test - Delayed Recall performance (aMCI subjects): fail to rescue performance | Verbal Paired Associates Test - Delayed Recall performance (aMCI subjects): fail to rescue performance | Verbal Paired Associates Test - Recognition performance (aMCI subjects): fail to rescue performance | absorption ([1]; after oral administration): rapidly and almost completely absorbed | plasma half-life ([1]; expected in elderly due to decreased renal function): 9 to 10 h | time of peak plasma concentrations ([1]; following oral administration): about 1 hour | plasma half-life ([1]; in vivo): approximately 7 ± 1 hour | time to steady state ([1]; multiple twice-daily dosing): 2 days | effect of food on bioavailability ([1]; oral administration): not affected by food | DG/CA3 activity compared with control subjects treated with placebo (DG/CA3 of aMCI subjects): statistically indistinguishable | DG/CA3 activity during successful memory judgments, vs placebo treatment (DG/CA3 of aMCI subjects; p = 0.037): reduces DG/CA3 hyper-activity | EC activity compared with placebo-treated control subjects [2]: statistically indistinguishable | EC activity during memory judgments, vs placebo treatment [2]: increases EC activity
